Common to all, as to assay type: physicochemical
Data set [1] can be described thus: Comparative photostability of thin film under UV-B irradiation (Q-UV Accelerated Weathering Tester). The settings on record: UV-B (1 MED/h), thin film with 0.1% PVP-VA on glass plate, Example 3 1%, Incroquat 283 1%, HP610 0.1%. The procedure:
(§1) The photostability of compounds of the present invention as well as existing commercial cationic sunscreens is tested according to the procedure described below: • Photostability: Comparative Photostability of Example 3, Incroquat® 283 and Escalol® HP610
(§2) Three products [Example 3 (1%), Incroquat 283 (1%) and HP610 (0.1%)] were tested for their photostability by dissolving separately in water or ethanol-water solution containing 0.1% Poly(vinylpyrrolidone-vinyl acetate) copolymer (PVP-VA S630 from ISP). Air drying on a glass plate for one hour gave a thin film, which were irradiated under UV A (2 MED/h) and UV B (1 MED/h) light separately over an 8 h period in a Q-UV Accelerated Weathering Tester. Photodegradation was calculated from the decrease in the maximum absorption of the respective products. The results are illustrated in the Tables 1 and 2.

Data set [2] in a line: Comparative photostability of thin film under UV-A irradiation (Q-UV Accelerated Weathering Tester). To be noted: UV-A (2 MED/h), thin film with 0.1% PVP-VA on glass plate, Example 3 1%, Incroquat 283 1%, HP610 0.1%. Here is the method: as §1, §2
The next data set is described as follows: Solubility. The settings on record: for solubility in water: water / aqueous solution.
A short description of a further data set: UV absorption maximum. To be noted: EtOH:water—70%:30%. The procedure: The mass was degassed for one hour at 90-95 deg. C. under vacuum. The yield obtained is about 85%. […] A 50% solution in water was prepared for ease of handling.

On to `CCCCCCCCCCCC[N+](C)(C)CCCNC(=O)c1ccc(N(C)C)cc1.Cc1ccc(S(=O)(=O)[O-])cc1` [Escalol HP ®-610], for which, in data set [1], the “% Product Retained After 1 hr” value is recorded as 33%, the “% Product Retained After 2 hr” value is 28% and the “% Product Retained After Initial” value was found to be 100%. Besides, in data set [2], the “% Product Retained After 2 hr” value is reported as 50%, the “% Product Retained After 4 hr” value is 40%, the “% Product Retained After 6 hr” value was determined as 30% and the “% Product Retained After Initial” value came out at 100%. Besides, the “maximal concentration reached in solution” value in “Solubility” (aqueous-ethanolic solution (30:70%)) is given as 0.25%. In addition, the solubility in water entry in “Solubility” is recorded as “very poor solubility”.
For “Bis-N-[3(N,N-dimethylamino)propyl]-3,4,5-trimethoxy benzylidene malonamide bis ethylsulfate [Example 3]”, in data set [1], the “% Product Retained After 1 hr” value worked out at 96%, the “% Product Retained After 2 hr” value is reported as 93% and the “% Product Retained After Initial” value was 100%. Besides, in data set [2], the “% Product Retained After 2 hr” value came out at 98%, the “% Product Retained After 4 hr” value worked out at 97%, the “% Product Retained After 6 hr” value came out at 94% and the “% Product Retained After Initial” value came to 100%. Besides, the solubility in water entry in the data set “Solubility” is given as “soluble in water”. In “UV absorption maximum”, this compound gave a λmax of 301 nm.

Values taken from patent US6936735B2, “Photostable cationic organic sunscreen compounds and compositions obtained therefrom” (EMD Chemicals, Inc., priority 2002, dated 2005).
